Columns and labels:
[1] = biological target: T1, hP2X1R (Homo sapiens, UniProt P51575); assay: two-electrode voltage clamp, Xenopus oocytes; assay type: cell-based
T1 construct: expressed in transfected cells; host or cells: Xenopus laevis oocytes (cRNA injected)
T1 sequence (P51575 1-399): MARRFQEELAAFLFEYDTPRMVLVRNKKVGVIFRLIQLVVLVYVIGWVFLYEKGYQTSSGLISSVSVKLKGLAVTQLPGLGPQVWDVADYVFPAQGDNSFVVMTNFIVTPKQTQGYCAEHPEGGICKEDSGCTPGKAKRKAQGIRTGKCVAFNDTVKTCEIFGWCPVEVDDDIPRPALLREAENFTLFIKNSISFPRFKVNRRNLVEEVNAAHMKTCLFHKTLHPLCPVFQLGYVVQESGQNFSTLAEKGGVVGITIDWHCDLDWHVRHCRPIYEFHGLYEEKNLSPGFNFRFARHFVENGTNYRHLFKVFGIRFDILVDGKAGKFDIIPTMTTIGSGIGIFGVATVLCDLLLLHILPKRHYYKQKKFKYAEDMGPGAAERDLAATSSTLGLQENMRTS
From the text: The hP2X1R was a gift from Dr Lin-Hua Jiang (University of Leeds, UK) and the hP2X1R cDNA has been described previously. Chimeras were generated by megaprimer-mediated domain swapping. In addition to chimeras, point mutations, deletions and insertions were made using the QuikChange (Stratagene) or Q5 (New England Bioscience) mutagenesis kits. The production of the correct mutations and absence of coding errors was verified by DNA sequencing (Automated ABI Sequencing Service, University of Leicester, UK).
(§1) P2XR constructs were transcribed to produce sense-strand cRNA (mMessage mMachine, Ambion, Austin, TX). Manually defoliculated stage V Xenopus laevis oocytes were injected with 50 nl (50 ng) of cRNA using an Inject + Matic microinjector (J.A. Gaby, InjectMatic, Geneva, Switzerland) and stored at 16 °C in ND96 buffer (in mM, NaCl 96, KCl 2, CaCl2 1.8, MgCl2 1, sodium pyruvate 5, HEPES 5 (pH 7.6) supplemented with 50 µg/ml gentamycin and 50 µg/ml tetracycline). For electrophysiological recordings (3–7 days post-injection) oocytes were bathed in divalent free ND96 buffer (in mM, NaCl 96, KCl 2, sodium pyruvate 5, HEPES 5 and 0.1 flufenamic acid, pH 7.6).
Two-electrode voltage clamp recordings were carried out using a GeneClamp 500B amplifier with a Digidata 1322 A analog to digital convertor and pCLAMP 8.2 acquisition software (Molecular Devices, Menolo Park, CA) at a holding potential of −60 mV. ATP (sodium salt, Sigma) was applied via a U-tube perfusion system for 3 s at 3–5 minute intervals to allow reproducible responses to be recorded. For determination of antagonist sensitivity AZ10606120 (Tocris) was bath perfused as well as co-applied with ATP through the U-tube. […]
Concentration response curves were normalized to the maximal response and fitted with the Hill equation (variable slope) with GraphPad Prism 6 (Graphpad software, San Diego, CA). […] Any significant differences were calculated by one-way analysis of variance, followed by Bonferroni’s test (using GraphPad Prism 6). […]

[2] = biological target: T2, hP2X7-2Nβ receptor (Homo sapiens, UniProt Q99572, I21V/M24R/N16P/N25R/Q22R/R20V/S23N/T19I/Y26L); assay: two-electrode voltage clamp, Xenopus oocytes; assay type: cell-based; details: P2X7-2Nβ
T2 construct: expressed in transfected cells; host or cells: Xenopus laevis oocytes (cRNA injected)
T2 sequence (Q99572 1-595 N16P/T19I/R20V/I21V/Q22R/S23N/M24R/N25R/Y26L): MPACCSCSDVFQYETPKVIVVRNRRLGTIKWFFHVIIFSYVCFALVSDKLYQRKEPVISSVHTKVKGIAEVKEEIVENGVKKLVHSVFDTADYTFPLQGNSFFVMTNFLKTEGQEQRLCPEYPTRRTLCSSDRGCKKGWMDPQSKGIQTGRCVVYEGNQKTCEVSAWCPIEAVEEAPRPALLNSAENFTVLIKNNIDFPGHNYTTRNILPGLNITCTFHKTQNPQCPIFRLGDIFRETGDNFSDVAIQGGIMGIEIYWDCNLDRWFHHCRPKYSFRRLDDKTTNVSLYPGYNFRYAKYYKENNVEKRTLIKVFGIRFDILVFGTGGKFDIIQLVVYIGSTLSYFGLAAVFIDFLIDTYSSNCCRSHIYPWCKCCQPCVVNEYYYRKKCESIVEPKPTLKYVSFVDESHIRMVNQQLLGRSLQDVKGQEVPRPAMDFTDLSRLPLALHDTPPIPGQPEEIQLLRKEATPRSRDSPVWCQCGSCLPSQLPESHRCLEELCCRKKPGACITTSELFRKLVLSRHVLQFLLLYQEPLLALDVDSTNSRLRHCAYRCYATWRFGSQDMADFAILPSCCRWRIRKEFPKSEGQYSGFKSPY
Description: as §1
ATP (sodium salt, Sigma) was applied via a U-tube perfusion system for 3 s at 3–5 minute intervals to allow reproducible responses to be recorded. […] To standardize for any change in ATP sensitivity at mutant receptors antagonists were co-applied with an EC90 concentration of ATP.
Concentration response curves were normalized to the maximal response and fitted with the Hill equation (variable slope) with GraphPad Prism 6 (Graphpad software, San Diego, CA). […] Individual concentration response curves were generated for individual experiments and statistical analysis was carried out on the data generated. In the figures the inhibition curves are fitted to the mean normalized data. Any significant differences were calculated by one-way analysis of variance, followed by Bonferroni’s test (using GraphPad Prism 6). Data are shown as mean ± SEM.

Structure (SMILES)	AZ10606120 pIC50 ([1]; P2X1, EC90 ATP)	effect of AZ10606120 at P2X1R ([1]; at 10 μM)	Hill slope of AZ10606120 inhibition ([2]; EC90 ATP)	% Inhibition with 30 nm AZ10606120 ([2]; response to EC90 ATP)	Peak amplitude ([1]; P2X1, maximal ATP)	Peak amplitude ([2]; maximal ATP)
Cl.Cl.O=C(CC12CC3CC(CC(C3)C1)C2)Nc1cccc2nc(NCCNCCO)ccc12 [AZ10606120, N-[2-[[2-[(2-Hydroxyethyl)amino]ethyl]amino]-5-quinolinyl]-2-tricyclo[3.3.1.13,7]dec-1-ylacetamide dihydrochloride]	insensitive	ineffective	1.7 ± 0.24	~ 70%	–	–
Nc1ncnc2c1ncn2[C@@H]1O[C@H](COP(=O)(O)OP(=O)(O)OP(=O)(O)O)[C@@H](O)[C@H]1O [ATP]	–	–	–	–	7.90 ± 1.08 μA	2.69 ± 0.19 μA

— PMC5429621 (Scientific Reports, 2017)
